Laboratory results from ChEMBL document CHEMBL1201862, “PubChem BioAssay data set” (2004).
Calls of active or inactive are those of the source. For most assays here, no stated cut-off is given here; in the data, actives have a measured EC50 and inactives only a lower limit.

Key:
[1] = molecular target: Cytochrome P450 2C9 (Homo sapiens, UniProt P11712)
[2] = molecular target: Cytochrome P450 3A4 (Homo sapiens, UniProt P08684);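 further: CYP3A4 tested as one member of a cytochrome P450 panel screen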
[3] = Luminescence Cell-Based Dose Response HTS to Identify Activators of Luciferase Translation or Activity in H4 […] Cells. [Related pubchem assays: 1829 (Project Summary), 1814 (Primary HTS)]; format: functional
[4] = tested on: H4; assay: Luminescence Cell-Based Dose Response HTS to Identify Activators of 5'UTR Stem-Loop Driven Prion Protein mRNA Translation in H4 Neuroglioblastoma Cells. [Related pubchem assays: 1829 (Project Summary), 1814 (Primary HTS)]; format: functional; details: Homo sapiens
[5] = Luminescence Cell-Based Dose Confirmation HTS to Identify Activators of 5'UTR Stem-Loop Driven Alpha-Synuclein mRNA Translation in H4 Neuroglioblastoma Cells. [Related pubchem assays: 1829 (Project Summary), 1814 (Primary HTS)]; format: functional
[6] = tested on: Streptococcus; assay: Group A Streptococcus viability loss, dose response, counter-screen for streptokinase expression inhibitor project, luminescence, BacTiterGlo (AID 1915); format: functional, organism-based;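 further: potency for reduction of bacterial viability or growth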
[7] = molecular target: T1, Streptokinase A (Streptococcus pyogenes serotype M1, UniProt P10520); assay: S. pyogenes streptokinase expression inhibitors, potency, dose response, plasminogen activation absorbance, OD405 (AID 1914); format: functional, Streptococcus pyogenes M1 GAS;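 further: secreted streptokinase activity via plasminogen activation per viability signal from cell pellet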
T1 sequence (P10520 whole entry): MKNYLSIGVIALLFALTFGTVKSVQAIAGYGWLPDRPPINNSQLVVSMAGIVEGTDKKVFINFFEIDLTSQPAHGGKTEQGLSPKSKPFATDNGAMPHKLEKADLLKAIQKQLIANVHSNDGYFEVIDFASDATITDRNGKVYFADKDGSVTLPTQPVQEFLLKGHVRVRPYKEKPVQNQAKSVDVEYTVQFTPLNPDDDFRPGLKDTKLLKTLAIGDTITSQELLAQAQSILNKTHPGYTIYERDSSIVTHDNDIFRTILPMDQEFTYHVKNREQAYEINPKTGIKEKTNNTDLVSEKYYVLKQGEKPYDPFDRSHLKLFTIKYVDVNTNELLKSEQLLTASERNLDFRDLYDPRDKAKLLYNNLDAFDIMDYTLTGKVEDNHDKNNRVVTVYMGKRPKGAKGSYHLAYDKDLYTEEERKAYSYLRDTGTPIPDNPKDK

[8] = tested on: Streptococcus sp. 'group A'; assay: growth inhibition of control SK(-) GAS strain, dose response, counter-screen for streptokinase expression inhibitor project, luminescence, kanamycin, BacTiterGlo, confirmation (AID 1900); format: functional, organism-based
[9] = Luminescence Cell-Based Dose Retest to Confirm Inhibitors of Cancer Stem Cells. [Related pubchem assays (depositor defined):AID2717, AID2721]; format: functional; details: Homo sapiens
[10] = molecular target: T2, Heat shock factor protein 1 (Mus musculus, UniProt P38532); assay: HSF1 potentiators in luciferase reporter cells, confirmation, cell-based, NIH3T3, luminescence, dose retest (AID 435004); format: functional;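 further: stress induced by proteasome inhibitor MG132 added 30 min after compound; luciferase reporter driven by HSF1 response element in NIH3T3 cells; actives raise luminescence as potentiators of the MG132 stress response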
T2 sequence (P38532 whole entry): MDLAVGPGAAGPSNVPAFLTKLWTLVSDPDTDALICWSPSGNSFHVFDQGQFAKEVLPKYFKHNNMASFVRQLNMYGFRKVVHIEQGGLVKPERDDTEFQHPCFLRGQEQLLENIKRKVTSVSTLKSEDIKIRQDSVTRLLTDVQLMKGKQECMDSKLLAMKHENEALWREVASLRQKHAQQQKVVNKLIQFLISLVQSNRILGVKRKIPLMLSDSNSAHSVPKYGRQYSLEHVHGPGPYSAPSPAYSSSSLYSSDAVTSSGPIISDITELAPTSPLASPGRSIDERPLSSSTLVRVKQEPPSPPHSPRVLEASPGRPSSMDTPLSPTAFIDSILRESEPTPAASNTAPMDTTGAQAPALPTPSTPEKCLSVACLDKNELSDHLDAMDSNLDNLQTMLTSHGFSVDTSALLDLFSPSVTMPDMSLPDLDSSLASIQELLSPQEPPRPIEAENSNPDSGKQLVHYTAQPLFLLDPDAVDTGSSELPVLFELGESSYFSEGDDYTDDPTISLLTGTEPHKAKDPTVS

[11] = molecular target: Cytochrome P450 2D6 (Homo sapiens, UniProt P10635);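 further: CYP2D6 member of a cytochrome P450 panel assay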
[12] = inhibitors of intracellular T. cruzi replication, confirmation, NIH3T3 host cells, beta-gal luminescence (AID 2044); format: functional, cell-based;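 further: intracellular parasites grown in NIH/3T3 mouse fibroblasts as host cells; luminescent beta-galactosidase reporter signal from transgenic T. cruzi replicating inside host cells; inhibitors lower the luminescence signal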
[13] = cytotoxicity toward NIH3T3 fibroblasts, dose response, counter-screen, cell-based, ATP luminescence, mouse fibroblasts (AID 2010); format: functional;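 further: cells exposed to compound for about 90 hours before reading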
[14] = HEp-2 cell cytotoxicity, dose response, cytotoxicity control for RSV inhibitor project, HTS (AID 2410); format: functional; details: human respiratory syncytial virus
[15] = molecular target: T2, Heat shock factor protein 1; assay: inhibition of MG132-induced HSE-luciferase signal, confirmation, cell-based, NIH3T3, luminescence, dose retest (AID 2382); format: functional;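 further: NIH3T3 fibroblasts with HSF1-driven luciferase reporter stressed by proteasome inhibitor MG132; luminescence from HSF1-driven luciferase expression after 8 hours of MG132 stress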

Sequence of Cytochrome P450 3A4 (P08684 whole entry): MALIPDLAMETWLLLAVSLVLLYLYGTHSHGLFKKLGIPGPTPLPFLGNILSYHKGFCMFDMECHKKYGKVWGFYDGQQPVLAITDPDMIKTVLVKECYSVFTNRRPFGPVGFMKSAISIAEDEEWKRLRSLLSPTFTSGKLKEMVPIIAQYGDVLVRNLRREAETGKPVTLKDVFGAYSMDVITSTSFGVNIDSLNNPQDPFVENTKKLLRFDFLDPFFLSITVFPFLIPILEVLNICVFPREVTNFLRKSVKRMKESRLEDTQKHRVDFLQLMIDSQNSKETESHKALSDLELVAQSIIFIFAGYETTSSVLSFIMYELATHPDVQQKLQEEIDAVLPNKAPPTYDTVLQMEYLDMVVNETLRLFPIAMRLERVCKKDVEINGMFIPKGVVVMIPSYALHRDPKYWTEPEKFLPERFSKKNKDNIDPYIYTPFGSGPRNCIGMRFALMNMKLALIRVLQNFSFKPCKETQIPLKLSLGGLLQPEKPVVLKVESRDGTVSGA
Sequence of Cytochrome P450 2C9 (P11712 whole entry): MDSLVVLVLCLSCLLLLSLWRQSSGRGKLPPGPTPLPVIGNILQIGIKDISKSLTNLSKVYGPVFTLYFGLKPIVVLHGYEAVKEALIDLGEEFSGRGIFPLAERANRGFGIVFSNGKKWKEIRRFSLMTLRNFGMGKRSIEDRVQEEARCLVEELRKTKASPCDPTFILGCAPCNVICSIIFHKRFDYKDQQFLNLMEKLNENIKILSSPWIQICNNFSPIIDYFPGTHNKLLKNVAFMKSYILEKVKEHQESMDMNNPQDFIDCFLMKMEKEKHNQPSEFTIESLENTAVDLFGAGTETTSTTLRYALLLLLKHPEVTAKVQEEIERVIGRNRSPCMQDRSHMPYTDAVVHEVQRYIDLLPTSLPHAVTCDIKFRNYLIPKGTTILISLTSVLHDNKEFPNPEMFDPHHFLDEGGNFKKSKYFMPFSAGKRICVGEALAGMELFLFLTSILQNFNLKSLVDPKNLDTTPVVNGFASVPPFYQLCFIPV
Sequence of Cytochrome P450 2D6 (P10635 whole entry): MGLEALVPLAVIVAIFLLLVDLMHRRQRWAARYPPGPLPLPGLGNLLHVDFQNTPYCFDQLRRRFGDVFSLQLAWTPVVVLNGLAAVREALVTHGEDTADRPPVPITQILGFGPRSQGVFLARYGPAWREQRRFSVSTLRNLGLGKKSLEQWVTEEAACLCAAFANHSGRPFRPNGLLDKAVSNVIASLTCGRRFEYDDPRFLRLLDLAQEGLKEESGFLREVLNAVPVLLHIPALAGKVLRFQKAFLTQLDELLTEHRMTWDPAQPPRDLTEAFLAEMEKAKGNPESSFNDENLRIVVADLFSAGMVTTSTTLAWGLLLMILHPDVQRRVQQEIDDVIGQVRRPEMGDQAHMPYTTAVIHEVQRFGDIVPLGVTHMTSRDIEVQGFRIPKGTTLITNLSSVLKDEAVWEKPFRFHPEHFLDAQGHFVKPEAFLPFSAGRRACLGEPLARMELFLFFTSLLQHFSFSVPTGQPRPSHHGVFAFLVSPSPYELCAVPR

Compound: O=C(O)C[S+]([O-])c1ccc2c3c(cccc13)C(=O)c1ccccc1-2 (configuration not stated)
- AC50 [1]: 6.31 µM (inconclusive)
- AC50 [2]: 3.98 µM (inconclusive)

Compound: O=C(COc1ccc(Br)cc1Br)NC(=O)NC1CCCC1
- EC50 [3]: 33.4 µM (active)
- EC50 [4]: > 120 µM (not active)
- EC50 [5]: 8.14 µM (active)

Compound: Cc1ccccc1C(=O)ON=C(N)c1cccc([N+](=O)[O-])c1
- EC50 [3]: 17 µM (active)
- EC50 [4]: 27.5 µM (active)
- EC50 [5]: 13.8 µM (active)

Compound: O=c1c2c(-c3ccccc3)ccnc2[nH]n1-c1ccccc1
- EC50 [3]: 10.8 µM (active)
- EC50 [4]: > 120 µM (not active)
- EC50 [5]: > 120 µM (not active)

Compound: O=C(Cc1csc(NC(=O)Nc2cccc(Cl)c2)n1)NCc1cccnc1
- EC50 [6]: 13.7 µM (active)
- EC50 [7]: > 150 µM (not active)
- EC50 [8]: 3.19 µM (active)

Compound: Oc1ccc(Br)cc1-c1cc(-c2ccccc2)[nH]n1
- AC50 [9]: 4.95 µM (active)

Compound: COc1cccc(Oc2nnnn2-c2ccccc2)c1
- EC50 [3]: 54.7 µM (active)
- EC50 [4]: > 120 µM (not active)
- EC50 [5]: 0.44 µM (active)

Compound: CCOC(=O)CC1C(=O)NCCN1S(=O)(=O)c1cc(Cl)c(Cl)cc1Cl (configuration not stated)
- EC50 [10]: > 260 µM (inactive)

Compound: Cc1ccc(OC(=O)NC2CCS(=O)(=O)C2)cc1C (configuration not stated)
- EC50 [3]: > 120 µM (not active)
- EC50 [4]: > 120 µM (not active)
- EC50 [5]: > 120 µM (not active)

Compound: CNC(C)C#Cc1ccc2sc3cc(OC)c(OC)cc3c(=O)c2c1 (configuration not stated)
- EC50 [3]: 15.3 µM (active)
- EC50 [4]: > 120 µM (not active)
- EC50 [5]: 22.3 µM (active)

Compound: O=c1cnc2cnc(N3CCNCC3)nc2n1CCc1ccccc1
- AC50 [11]: 15.8 µM (inconclusive)
- AC50 [1]: 20 µM (inconclusive)
- AC50 [2]: 15.8 µM (inconclusive)

Compound: C=CCn1c(O)cc(=O)nc1SC(C)CC (configuration not stated)
- EC50 [6]: > 150 µM (not active)
- EC50 [7]: > 150 µM (not active)
- EC50 [8]: 21.3 µM (active)

Compound: CC(=O)c1cccc(N(CC(=O)Nc2ccc(F)cc2F)S(C)(=O)=O)c1
- EC50 [10]: 176 µM (active)

Compound: Cc1cc2c3c(c1)C1(C(=O)N3C(C)(C)CC2C)C(C#N)=C(N)Oc2cc(O)ccc21 (configuration not stated)
- EC50 [12]: 1.41 µM (active)
- EC50 [10]: 54.7 µM (active)
- EC50 [13]: > 60 µM (not active)

Compound: CCC(C(=O)N1CCC(N2CCCCC2)CC1)n1nc(C)c2sc3ccccc3c2c1=O (configuration not stated)
- EC50 [6]: > 150 µM (not active)
- EC50 [7]: > 150 µM (not active)
- EC50 [8]: > 150 µM (not active)

Compound: CCCCCCNC(=O)CN=C(S)N(Cc1cccs1)C1CCCCC1
- EC50 [10]: > 260 µM (inactive)

Compound: CC1CCCC(N=C(S)Nc2ccc(SC(F)F)cc2)C1C (configuration not stated)
- AC50 [9]: 5.61 µM (active)

Compound: O=C(Nc1ccccc1)C1=C[C@@H](c2csc3ccccc23)C[C@@H](OCc2ccc(CO)cc2)O1
- AC50 [9]: 2.65 µM (active)

Compound: Brc1ccccc1-n1nnc(-c2cnc3ccccc3c2)n1
- EC50 [10]: > 260 µM (inactive)

Compound: CCOC(=O)C1CCN(c2c(NCc3ccc(C(=O)NCCC(C)C)cc3)c(=O)c2=O)CC1
- AC50 [11]: 0.398 µM (inconclusive)
- AC50 [1]: 7.94 µM (inconclusive)
- AC50 [2]: 7.94 µM (inconclusive)

Compound: Oc1ccc2ccccc2c1CN1CCN(c2ccccc2)CC1
- EC50 [10]: 49.8 µM (active)

Compound: Cc1cc(C)c2c(NC(=O)C3CC3)nn(C)c2n1
- EC50 [10]: > 260 µM (inactive)

Compound: Cc1ccc2nc(Nc3nc(=O)cc(-c4ccccc4)[nH]3)nc(C)c2c1
- EC50 [7]: > 150 µM (not active)

Compound: Cc1ccc2nc(Nc3nc(O)cc(-c4ccccc4)n3)nc(C)c2c1
- EC50 [6]: 6.98 µM (active)
- EC50 [8]: 2.94 µM (active)

Compound: COc1ccc(/C=N/N(c2ccccc2)c2ccccc2)cc1O
- AC50 [9]: 6.76 µM (active)

Compound: CC1(C)OC(C(O)(c2ccccc2)c2ccccc2)[C@@H](C(O)(c2ccccc2)c2ccccc2)O1 (some centres not stated)
- EC50 [6]: > 150 µM (not active)
- EC50 [7]: 2.78 µM (active)
- EC50 [8]: 2.95 µM (active)

Compound: Cc1nn(C)c(C(=O)Nc2ccc(S(=O)(=O)NC34CC5CC(CC(C5)C3)C4)cc2)c1Br
- EC50 [12]: 2.79 µM (active)
- EC50 [6]: 16.5 µM (active)
- EC50 [7]: 16.8 µM (active)
- EC50 [13]: > 60 µM (inconclusive)
- EC50 [8]: 8.5 µM (active)

Compound: Cc1ccc(/C=c2\s/c(=C(/C#N)C(=O)N3CCCC3)n(Cc3ccco3)c2=O)s1
- EC50 [10]: 9.99 µM (active)

Compound: Cn1c(=O)c(/C=C/c2ccc(F)cc2)nc2ccccc21
- EC50 [10]: 36.5 µM (active)

Compound: CC1CCC(NC(=O)Cn2c(=O)[nH]c3ccsc3c2=O)CC1 (configuration not stated)
- EC50 [3]: 29.3 µM (active)
- EC50 [4]: 90.1 µM (active)
- EC50 [5]: 12.4 µM (active)

Compound: CCCC(C)c1nnc(NC(=O)COc2ccc3c(c2)OCO3)s1 (configuration not stated)
- AC50 [9]: 5.69 µM (active)

Compound: C/C(=N\NC(=O)c1nnn(-c2nonc2N)c1CN1CCCCC1)c1ccccc1O
- AC50 [9]: 3.42 µM (active)

Compound: C=CCn1c(SCC(N)=O)nnc1-c1cc2c(s1)CCC(CC)C2 (configuration not stated)
- EC50 [3]: 27.7 µM (active)
- EC50 [4]: 5.64 µM (active)
- EC50 [5]: 3 µM (active)

Compound: Cc1ccc(C(=O)CCC2CCCCC2=O)cc1 (configuration not stated)
- EC50 [3]: 36.7 µM (active)
- EC50 [4]: 28.4 µM (active)
- EC50 [5]: 13.2 µM (active)

Compound: CCN1C(=O)/C(=C\N2CCN(c3cccc(Cl)c3)CC2)SC1=S
- AC50 [9]: 1.77 µM (active)

Compound: CCOc1ccc2nc(N3CCCC(C(=O)NCC4CCCO4)C3)sc2c1 (configuration not stated)
- EC50 [3]: 17.1 µM (active)
- EC50 [4]: 17.2 µM (active)
- EC50 [5]: 17.5 µM (active)

Compound: COc1ccc(OCc2cc(C(=O)N(C)Cc3cc(C)no3)no2)c(Cl)c1
- EC50 [3]: 65.1 µM (active)
- EC50 [4]: 10.1 µM (active)
- EC50 [5]: 1.42 µM (active)

Compound: O=C(CSc1nc(N2CCOCC2)nc(N2CCOCC2)n1)Nc1cccc(C(F)(F)F)c1
- EC50 [6]: > 150 µM (not active)
- EC50 [7]: > 150 µM (not active)
- EC50 [8]: > 150 µM (not active)

Compound: COc1cc(/C=N/Nc2ncnc3sc4c(c23)CCC4)ccc1O
- EC50 [6]: > 150 µM (not active)
- EC50 [7]: 5.06 µM (active)
- EC50 [8]: 3.88 µM (active)

Compound: COc1cccc(-c2ccc(C#N)c(OC(=O)c3c(Cl)cccc3Cl)n2)c1
- CC50 [14]: 28.1 µM (active)
- AC50 [9]: 3.52 µM (active)

Compound: COc1cccc(-n2nnc3c(=O)n(Cc4ccccc4Cl)cnc32)c1
- EC50 [6]: > 150 µM (not active)
- EC50 [7]: > 150 µM (not active)
- EC50 [15]: > 195 µM (not active)
- EC50 [8]: > 150 µM (not active)

Compound: COc1ccccc1NC(=O)c1ccc(S(=O)(=O)N2CCCC(C)C2)cc1 (configuration not stated)
- AC50 [9]: > 195 µM (inactive)

Compound: Cc1ccc(-c2[nH]ncc2C(=O)c2ccc(Br)cc2)c(O)c1
- EC50 [10]: > 260 µM (inactive)

Compound: CCc1ccccc1NC(=O)CC(c1ccc(OC)cc1)n1cccc1 (configuration not stated)
- EC50 [10]: > 260 µM (inactive)

Compound: Nc1nc(CSCc2ccccc2)nc(N2CCOCC2)n1
- EC50 [3]: 6.28 µM (active)
- EC50 [4]: 50.7 µM (active)
- EC50 [5]: > 120 µM (not active)
